{"source": "patent US20240269150A1", "about": "“WOUND TREATMENT COMPOSITION” (CS MEDICA A/S, priority 2021, published 2024)", "test": "Comparison of compositions formulated with different crystalline CBDs", "format": "in vivo", "conditions": "compositions per Example 1 (formulation A or B) differing only in the crystalline CBD used", "source_text": "In some embodiments, CBD of crystal structure A (or capable of forming needle-like crystals) is at least 1.2, 1.5, 2, 3, 4, 5, 7.5, 10, 15 or 20 times more “potent” on a weight/weight basis than CBD of crystal structure B (or capable of forming cluster/bunch-like crystals). Often, the “A-type” CBD is at least 2.5, 5, 7.5, or 10 times more “potent” on a weight/weight basis than “B-type” CBD. The “potency” of “type A” CBD can e.g. be determined in measuring the time needed for wound and/or soar healing using essentially identical compositions with the exception of the type of CBD used. Alternatively, the potency can be determined in the quantity of CBD needed to provide the same effect, such as wound and/or sore healing time.\nTwo compositions are prepared according to Example 1, e.g. formulation A or B, the only difference being that the crystalline CBD used in the formulation is either of type A (needle-like crystals; FIG. 1) or type B (bunch/cluster-like; FIG. 2).\nType A crystalline CBD is sourced from Enecta, while type B CBD is sourced from Pharma Hemp.", "data": [{"smiles": "C=C(C)[C@@H]1CCC(C)=C[C@H]1c1c(O)cc(CCCCC)cc1O", "note": "[type A CBD, cannabidiol]", "values": [{"measurement": "Activity / potency of type A CBD relative to type B CBD", "result": "significantly more active than type B CBD"}, {"measurement": "Activity / potency of type A CBD relative to type B CBD", "setting": "listed as CBD with a needle-like crystal structure", "result": "significantly more potent"}]}]}
